Data published in patent US6403594B1, “Benzopyran derivatives” (Recordati, S.A. Chemical and Pharmaceutical Company, priority 1999, dated 2002).

How the values were obtained:
[1] = tested on: prostatic urethral pressure increase induced by noradrenaline; assay: Inhibition of urethral contractions induced by noradrenaline in anaesthetised dogs after i.v. administration; assay type: in vivo, dog; settings: for UC ID50: active dose inhibiting by 50% the urethral contractions induced by noradrenaline: i.v. administration; for DBP/UC ratio between the active doses: i.v., DBP ED25 / UC ID50
Protocol: The experiments were performed according to the method of Imagawa J. et al., J. Pharmacol. Methods 22: 103-111, 1989, with substantial modifications, as follows: adult male beagle dogs, weighing 8-10 kg, were anaesthetised with pentobarbital sodium (30 mg/kg i.v. and 2 mg/kg/h i.v.), intubated and spontaneously ventilated with room air. In order to monitor systemic blood pressure (BP), a polyethylene (PE) catheter was introduced into the aortic arch through the left femoral artery. A collateral of the left femoral vein was cannulated for infusion of anaesthetic, and the right femoral vein was cannulated for administration of compounds. For intra-arterial (i.a.) injection of noradrenaline (NA), a PE catheter was introduced into the lower portion of the abdominal aorta via the right external iliac artery. Through such procedure, NA was selectively distributed to the lower urinary tract. A paramedian vertical suprapubic incision extending from the base of the pelvis to the mid-abdominal region was made and the bladder and prostate were exposed. The bladder was manually emptied with a syringe. Prostatic urethral pressure was monitored with a Mikro-tip catheter (5F) introduced into the bladder via the external urethral meatus, and withdrawn until the pressure transducer was positioned in the prostatic region of the urethra. A ligature was secured between the neck of the bladder and urethra to isolate the response of the latter and to avoid any interaction with the bladder. Another ligature was put around the Mikro-tip catheter at the external meatus, to secure the catheter itself. After a stabilising period following the surgical procedure (30 minutes), in which arterial and prostatic urethral pressure were continuously monitored as basal values, i.a. administration of NA was made at intervals of 20 minutes. The doses of NA chosen were such to produce an increase of at least 100% in urethral pressure. The test compounds were administered i.v. in a cumulative manner with intervals of 15-20 minutes between administrations. I.a. injections of NA were repeated 5 minutes after every dosing of test compound with intervals of about 10 minutes between stimulations. In order to compare the effects of the administered compound, dose/response curves (log dose transformation) were constructed by computing, at the peak effect, the percent decrease in diastolic blood pressure and the percent inhibition of the increase in urethral pressure induced by NA.

α1L adrenoceptor = biological target: T1, α1L adrenoceptor (Oryctolagus cuniculus, UniProt O02824); assay: Functional antagonism of noradrenaline-induced contractions of rabbit aorta pretreated with chloroethylclonidine; assay type: biochemical; settings: NA-induced contractions of rabbit aorta pretreated with chloroethylclonidine
T1 sequence (O02824 1-466): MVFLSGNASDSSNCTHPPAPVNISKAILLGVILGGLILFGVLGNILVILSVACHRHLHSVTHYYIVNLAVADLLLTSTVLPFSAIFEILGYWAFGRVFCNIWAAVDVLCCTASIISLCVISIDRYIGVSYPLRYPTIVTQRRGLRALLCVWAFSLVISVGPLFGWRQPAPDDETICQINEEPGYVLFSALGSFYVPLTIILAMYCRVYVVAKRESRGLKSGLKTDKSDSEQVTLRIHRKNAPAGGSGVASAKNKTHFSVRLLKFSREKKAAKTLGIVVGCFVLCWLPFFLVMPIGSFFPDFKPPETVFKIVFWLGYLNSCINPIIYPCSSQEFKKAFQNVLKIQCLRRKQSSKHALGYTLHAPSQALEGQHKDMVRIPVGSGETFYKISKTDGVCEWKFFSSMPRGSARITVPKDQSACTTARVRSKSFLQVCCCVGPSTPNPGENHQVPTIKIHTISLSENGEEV
Protocol: Adult male New Zealand rabbits were sacrificed by cervical dislocation. The aorta was removed, placed in Krebs-Henseleit buffer and dissected free of adhering tissue. […] Desmethylimipramine (0.1 μm) and corticosterone (1 μM) to block neuronal and extraneuronal uptake of NA, (±)-propranol (1 μM) to block β adrenoceptors and yohimbine (0.1 μM) to block α2 adrenoceptors, were added to the buffer.
The preparations were allowed to equilibrate for 60 minutes and then primed every thirty minutes with 10 μM NA for three times. The aortic rings were then incubated with the alkylating agent chloroethylclonidine (5×10^−5 M) for 30 minutes and then washed extensively three times (in 0.5 hours) before constructing the NA-concentration/response curve. After washout of NA and re-equilibration of the tissue (45 minutes), the drug to be tested was added and, after 30 minutes, a second NA-cumulative-concentration/response curve constructed.
Each antagonist concentration was tested using 2-3 aortic rings from different rabbits.
Dose ratios (i.e., the ratio between the concentrations of NA required to produce half-maximal response in the presence and in the absence of the test antagonist) were calculated for each concentration of the compounds. The logarithm of these dose ratio-1 was plotted against the logarithm of the compound concentrations (Schild plot) to evaluate the affinity constant Kb.
When only one or two concentrations of the test compounds were utilised, the apparent Kb value was calculated using the formula: Kb=[B]/(DOSE RATIO-1), where B is the antagonist concentration.

[2] = biological target: T2, α1a-adrenoceptor (recombinant) (Homo sapiens, UniProt P35348); assay: Radioligand binding, cloned α1a-adrenoceptor ([3H]prazosin); settings: read-out: Affinity for recombinant α1a-adrenoceptor, cloned receptors (Ki)
T2 construct: expressed in transfected cells
T2 sequence (P35348 1-466): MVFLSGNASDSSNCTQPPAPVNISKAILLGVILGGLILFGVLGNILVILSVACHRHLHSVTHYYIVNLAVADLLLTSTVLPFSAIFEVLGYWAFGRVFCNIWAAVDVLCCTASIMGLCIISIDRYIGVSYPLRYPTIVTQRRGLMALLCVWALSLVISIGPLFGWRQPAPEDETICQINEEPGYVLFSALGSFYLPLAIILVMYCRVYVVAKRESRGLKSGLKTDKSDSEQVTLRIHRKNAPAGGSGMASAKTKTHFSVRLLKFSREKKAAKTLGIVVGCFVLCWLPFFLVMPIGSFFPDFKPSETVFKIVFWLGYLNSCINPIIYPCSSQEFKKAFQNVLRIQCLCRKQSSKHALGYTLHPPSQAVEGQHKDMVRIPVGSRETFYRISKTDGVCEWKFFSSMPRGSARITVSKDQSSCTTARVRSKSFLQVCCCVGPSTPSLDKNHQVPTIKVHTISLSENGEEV

## COc1ccc(Cl)cc1N1CCN(CCCNC(=O)c2cccc3c(=O)c(C)c(C(N)=O)oc23)CC1 [Example 1, 2-Carbamoyl-8-{3-[4-(5-chloro-2-methoxyphenyl)-1-piperazinyl]-propylcarbamoyl}-3-methyl-4-oxo-4H-1-benzopyran]
[1]
  UC ID50: active dose inhibiting by 50% the urethral contractions induced by noradrenaline: 11.8 µg/kg
  DBP/UC ratio between the active doses: 234.7
α1L adrenoceptor
  Functional affinity for the α1L adrenoceptor subtype, pKb: 8.27
[2]
  Ki: 2.4 nM

## CCOC(=O)c1oc2c(C(=O)NCCCN3CCN(c4cc(Cl)ccc4OC)CC3)cccc2c(=O)c1C [Example 4, 2-Ethoxycarbonyl-8-{3-[4-(5-chloro-2-methoxyphenyl)-1-piperazinyl]-propylcarbamoyl}-3-methyl-4-oxo-4H-1-benzopyran]
[1]
  UC ID50: active dose inhibiting by 50% the urethral contractions induced by noradrenaline: 2.3 µg/kg
  DBP/UC ratio between the active doses: 71.0
α1L adrenoceptor
  Functional affinity for the α1L adrenoceptor subtype, pKb: 8.47
[2]
  Ki: 0.21 nM
